# Laboratory results published in patent US12576070B2, “Medicine for improving state of pregnancy, and use thereof” (priority 2014, dated 2026).
# System: infertilitas patients with three or more consecutive miscarriages, stillbirths, or intrauterine fetal growth retardations
# Experiment: Tacrolimus treatment of infertilitas patients from establishment of pregnancy until delivery (Example 2)
# Type: in vivo, human
# Description: These patients were a group of patients for whom clear findings of abnormality related to infertility were not recognized with a serological examination that had been performed in advance.
# The patients were evaluated through a transvaginal ultrasound examination, a Fallopian tube patency test, and hysteroscopy before an index ART cycle. Among the participants, no one had submucosal myoma, endometrial polyps, intrauterine adhesion, congenital abnormalities in the uterus, or hydrosalpinx. […] Any women who had experienced miscarriage in the previous IVF cycle, who had received an IVF cycle, or who had received vaccination, all within three months, were excluded from the subjects. Any women with acquired or congenital thrombophilia were excluded from the subjects.
# The analysis was carried out according to the method described in Example 1. However, the determination of the Th1/Th2 cell ratio in a patient was carried out immediately after establishment of pregnancy (the day of confirming establishment of pregnancy). The level of the Th1/Th2 cell ratio was determined according to the average value+1 standard deviation method in the same manner as in Example 1, and a Th1/Th2 cell ratio that was equal to 10.3 or higher than that was classified as an increased Th1/Th2 cell ratio.
# All of the eleven patients were subjected to treatment with tacrolimus in the same manner as in Example 1, except for the duration of administration. […] The duration of administration of tacrolimus was from the time point immediately after establishment of pregnancy was confirmed by a pregnancy test and the Th1/Th2 cell ratio was checked, until the day of delivery, in all cases.
# The treatment was carried out in the same manner as in Example 1.
# The analysis was carried out in the same manner as in Example 1.
# [1] = infertilitas patients n = 11, tacrolimus 1-3 mg per day from confirmation of pregnancy until delivery
smiles,measurement,setting,value
"C=CCC1/C=C(\C)CC(C)CC(OC)C2OC(O)(C(=O)C(=O)N3CCCCC3C(=O)OC(/C(C)=C/C3CCC(O)C(OC)C3)C(C)C(O)CC1=O)C(C)CC2OC (stereo not shown) [tacrolimus, 17-Allyl-1,14-dihydroxy-12-[2-(4-hydroxy-3-methoxycyclohexyl)-1-methylvinyl]-23,2 5-dimethoxy-13,19,21,27-tetramethyl-11,28-dioxa-4-azatricyclo[22.3.1.04,9]octacos-18-ene-2,3,10,16-tetraone]",APGAR Score 1 minute,Full term birth (8 babies),8.0 ± 1.0
same,APGAR Score 5 minute,Full term birth (8 babies),9.0 ± 0.5
same,Birth weight (gm),Full term birth (8 babies),3149 ± 234 gm
same,Complications of mother,Full term birth (8 babies),0
same,Complications of newborn baby,Full term birth (8 babies),0
same,Number of gestational days,Full term birth (8 babies),279.3 ± 6.0 days
same,Umbilical cord blood pH,Full term birth (8 babies),7.3 ± 0.12
same,APGAR Score 1 minute,Premature birth case,6
same,APGAR Score 5 minute,Premature birth case,8
same,Birth weight (gm),Premature birth case,748 gm
same,Number of gestational days,Premature birth case,208 days
same,Umbilical cord blood pH,Premature birth case,7.304
same,Complications of newborn baby,"Premature birth case, Low birth weight baby",1 (Low birth
same,Complications of mother,"Premature birth case, Pregnancy-induced hypertension",1 (Pregnancy-
same,Number of newborn babies (n): Miscarriage,[1],2 n
same,Number of newborn babies (n): Premature birth,[1],1 n
